Literature values, collected in US20130085461A1, “Method for Pre-Debriding Treatment of Non-Viable Skin Tissue and Compositions and System Thereof” (BIOMEDICAL CONCEPTS LLC, priority 2011, published 2013).
Like-named read-outs stand apart in the source and are kept apart here.

Molecular target: T1, rat tail Type I collagen (Rattus norvegicus, UniProt P02454+P02466)
T1 construct: host or cells: rat tail (tissue), as reported in the cited work
Conditions: non-viable rat tail Type I collagen

T1 sequence (P02454 152-1207 limits assumed): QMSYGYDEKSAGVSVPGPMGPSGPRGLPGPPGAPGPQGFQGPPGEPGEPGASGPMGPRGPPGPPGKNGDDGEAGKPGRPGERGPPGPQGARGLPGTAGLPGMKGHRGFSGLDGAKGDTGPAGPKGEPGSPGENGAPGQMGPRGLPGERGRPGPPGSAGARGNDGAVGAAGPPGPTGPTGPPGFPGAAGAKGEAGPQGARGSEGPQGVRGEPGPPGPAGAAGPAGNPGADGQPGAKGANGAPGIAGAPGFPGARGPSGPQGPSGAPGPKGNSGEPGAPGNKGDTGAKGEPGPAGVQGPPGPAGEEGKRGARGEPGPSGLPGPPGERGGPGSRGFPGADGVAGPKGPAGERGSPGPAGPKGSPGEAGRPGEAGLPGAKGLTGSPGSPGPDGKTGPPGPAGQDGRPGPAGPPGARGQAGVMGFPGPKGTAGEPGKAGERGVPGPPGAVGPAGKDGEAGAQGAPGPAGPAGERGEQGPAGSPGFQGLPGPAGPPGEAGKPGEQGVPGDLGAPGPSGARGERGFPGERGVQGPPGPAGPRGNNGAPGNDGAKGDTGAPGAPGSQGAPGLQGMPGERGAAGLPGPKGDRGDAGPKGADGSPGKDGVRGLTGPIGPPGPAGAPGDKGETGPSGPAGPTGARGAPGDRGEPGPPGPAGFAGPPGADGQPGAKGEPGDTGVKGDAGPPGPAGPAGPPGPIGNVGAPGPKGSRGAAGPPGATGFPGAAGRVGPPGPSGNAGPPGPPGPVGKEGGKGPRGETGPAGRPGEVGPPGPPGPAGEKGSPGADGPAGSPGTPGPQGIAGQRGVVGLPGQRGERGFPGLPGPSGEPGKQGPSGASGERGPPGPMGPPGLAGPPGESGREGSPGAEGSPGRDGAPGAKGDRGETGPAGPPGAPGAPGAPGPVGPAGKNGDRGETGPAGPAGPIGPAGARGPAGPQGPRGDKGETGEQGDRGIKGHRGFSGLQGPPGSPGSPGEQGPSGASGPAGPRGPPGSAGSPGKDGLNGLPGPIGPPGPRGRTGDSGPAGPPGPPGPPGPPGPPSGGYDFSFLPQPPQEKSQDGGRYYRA
T1 sequence (P02466 86-1125 limits assumed): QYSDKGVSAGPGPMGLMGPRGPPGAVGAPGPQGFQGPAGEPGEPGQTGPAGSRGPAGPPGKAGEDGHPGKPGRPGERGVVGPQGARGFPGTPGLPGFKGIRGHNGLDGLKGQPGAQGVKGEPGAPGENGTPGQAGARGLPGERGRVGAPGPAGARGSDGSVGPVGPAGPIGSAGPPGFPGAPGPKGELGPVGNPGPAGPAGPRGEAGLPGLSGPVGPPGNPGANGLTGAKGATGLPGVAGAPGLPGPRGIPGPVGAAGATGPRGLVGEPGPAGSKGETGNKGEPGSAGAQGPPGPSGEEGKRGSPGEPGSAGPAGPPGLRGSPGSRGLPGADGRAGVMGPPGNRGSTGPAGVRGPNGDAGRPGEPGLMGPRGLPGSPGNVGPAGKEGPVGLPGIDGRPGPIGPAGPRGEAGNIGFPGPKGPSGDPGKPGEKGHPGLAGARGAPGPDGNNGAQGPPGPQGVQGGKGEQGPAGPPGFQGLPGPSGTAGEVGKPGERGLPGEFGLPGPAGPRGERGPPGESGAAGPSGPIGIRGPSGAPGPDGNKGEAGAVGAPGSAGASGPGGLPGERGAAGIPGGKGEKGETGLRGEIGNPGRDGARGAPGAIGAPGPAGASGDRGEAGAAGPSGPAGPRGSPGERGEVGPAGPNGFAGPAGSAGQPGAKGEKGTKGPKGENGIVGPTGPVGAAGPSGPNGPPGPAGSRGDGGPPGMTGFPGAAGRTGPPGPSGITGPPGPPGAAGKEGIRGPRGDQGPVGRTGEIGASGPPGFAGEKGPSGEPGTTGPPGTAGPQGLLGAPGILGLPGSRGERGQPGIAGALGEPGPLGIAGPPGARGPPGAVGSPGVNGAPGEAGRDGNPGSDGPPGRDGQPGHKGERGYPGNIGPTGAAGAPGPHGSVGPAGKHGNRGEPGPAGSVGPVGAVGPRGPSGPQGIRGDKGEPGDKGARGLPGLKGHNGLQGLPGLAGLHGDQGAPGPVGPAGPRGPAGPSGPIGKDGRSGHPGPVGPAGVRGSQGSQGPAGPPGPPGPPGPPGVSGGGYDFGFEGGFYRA

In the case of `CCCO` [n-propanol], the “reduction of denaturation temperature (Tm=67.5° C.)” value (10 mole %) is listed as 3.5 °C.

In the case of `NC(N)=O` [urea], the “reduction of denaturation temperature (Tm=67.5° C.)” value (3M) is listed as 13.5 °C.
